Paper PMC8365601, “Terphenyl-Based Small-Molecule Inhibitors of Programmed Cell Death-1/Programmed Death-Ligand 1 Protein–Protein Interaction” (Journal of Medicinal Chemistry, 2021)
Where two headings read alike, the source gives them in different places.

Legend:
[1] = tested on: Jurkat-ECs alone or with CHO wt or CHO/TCRAct cells; test: ICB assay control where PD-L1 is absent; assay type: cell-based; settings: 6 h; Figure S1
Procedure: The functional assay of the blockade of PD-1/PD-L1 interaction in vitro (PD-1/PD-L1 Blockade Bioassay, Promega) was performed according to the manufacturer’s protocol. CHO/TCRAct/PD-L1 cells or CHO/TCRAct or CHO-K1 cells were seeded on 96-well white plates at the density of 10,000 cells/well and the next day overlaid with Jurkat T cells (20,000 cells/well) in the presence of increasing concentrations of the compounds with DMSO only as a control (the concentration of DMSO was kept constant at 0.1%) or atezolizumab, as a positive control, anti-PD-L1 monoclonal antibody (Selleckchem). The 2.5-fold dilutions of atezolizumab were prepared in the assay buffer (RPMI 1640 + 1% FBS) on the day of the assay. Activation of the Jurkat T cells, reflected by luciferase activity, was monitored by luminescence measurements after 6 h of incubation (37 °C, 5% CO2), and 20 min of additional incubation with the Bio-Glo assay reagent (Promega) at room temperature. The luminescence was read on a Spark microplate reader (Tecan). The data are presented as fold induction of the luminescence signal relative to either untreated (for atezolizumab) or DMSO-treated (for compound) cells. Data points represent mean ± SD values from three to five independent experiments. Half-maximal effective concentrations (EC50 values) were calculated from the Hill curve fitting to the experimental data using Origin Pro 2020 software (OriginLab). […]
of the Immune Checkpoint Blockade (ICB) assay, where 8h, 8i, and 8j were used to restore the activation of effector Jurkat-ECs. Jurkat-ECs were either kept alone, or contacted with one of the following cell lines: wild type CHO K1 cells (CHO wt), CHO K1 cells expressing TCR Activator (CHO/TCRAct), or CHO K1 cells expressing TCR Activator and […]. The cells were incubated with the indicated concentrations of the compounds for 6 hours and luminescence was measured as an indicator of TCR-dependent activation of Jurkat-ECs. The graphs present fold induction of the luminescence signal relative to DMSO-treated cells. […]

[2] = target: T1, human PD-L1 (Homo sapiens, UniProt Q9NZQ7); test: 1H NMR titration with human PD-L1; assay type: binding; settings: molar ratio 1:1
T1 construct: pET-21b plasmid carrying the PD-L1 gene (amino acids 18–134); made in house; host or cells: Escherichia coli BL21
Procedure: NMR spectra were recorded in PBS pH 7.4 containing 10% (v/v) of D2O added to the samples to provide the lock signal. Water suppression was carried out using the WATERGATE sequence. All the spectra were recorded at 300 K using a Bruker AVANCE 600 MHz spectrometer with the cryo-platform. The spectra were recorded at the ligand/protein ratio of 1:1, unless stated otherwise. The samples were prepared by adding small amounts of a 50 mM ligand stock solution in DMSO to the protein solution (0.20 mL) of PD-L1 fragment at a concentration of 0.2 mM. Spectra were visualized using TopSpin 4.0.2.

[3] = target: T2, PD-1/PD-L1 interaction (Homo sapiens, UniProt Q9NZQ7); test: PD-1/PD-L1 ICB assay (Jurkat-ECs with CHO/TCRAct/PD-L1 cells, luciferase); assay type: cell-based
T2 construct: host or cells: CHO-K1 (CHO/TCRAct/PD-L1) and Jurkat effector cells
Procedure: After a successful optimization of the terphenyl compounds, the activity of the optimized molecules 7a and 8a–j in a cellular context was assessed. To this end, we first performed the PD-1/PD-L1 ICB assay. In this assay, T-cell receptor (TCR)-mediated activation of Jurkat effector cells (Jurkat-ECs) is reduced by the presence of PD-L1, exposed at the surface of CHO/TCRAct/PD-L1 cells (Figure 3A).
The functional assay of the blockade of PD-1/PD-L1 interaction in vitro (PD-1/PD-L1 Blockade Bioassay, Promega) was performed according to the manufacturer’s protocol. CHO/TCRAct/PD-L1 cells or CHO/TCRAct or CHO-K1 cells were seeded on 96-well white plates at the density of 10,000 cells/well and the next day overlaid with Jurkat T cells (20,000 cells/well) in the presence of increasing concentrations of the compounds with DMSO only as a control (the concentration of DMSO was kept constant at 0.1%) or atezolizumab, as a positive control, anti-PD-L1 monoclonal antibody (Selleckchem). The 2.5-fold dilutions of atezolizumab were prepared in the assay buffer (RPMI 1640 + 1% FBS) on the day of the assay. Activation of the Jurkat T cells, reflected by luciferase activity, was monitored by luminescence measurements after 6 h of incubation (37 °C, 5% CO2), and 20 min of additional incubation with the Bio-Glo assay reagent (Promega) at room temperature. The luminescence was read on a Spark microplate reader (Tecan). The data are presented as fold induction of the luminescence signal relative to either untreated (for atezolizumab) or DMSO-treated (for compound) cells. Data points represent mean ± SD values from three to five independent experiments. Half-maximal effective concentrations (EC50 values) were calculated from the Hill curve fitting to the experimental data using Origin Pro 2020 software (OriginLab).

T2 sequence (Q9NZQ7 19-290): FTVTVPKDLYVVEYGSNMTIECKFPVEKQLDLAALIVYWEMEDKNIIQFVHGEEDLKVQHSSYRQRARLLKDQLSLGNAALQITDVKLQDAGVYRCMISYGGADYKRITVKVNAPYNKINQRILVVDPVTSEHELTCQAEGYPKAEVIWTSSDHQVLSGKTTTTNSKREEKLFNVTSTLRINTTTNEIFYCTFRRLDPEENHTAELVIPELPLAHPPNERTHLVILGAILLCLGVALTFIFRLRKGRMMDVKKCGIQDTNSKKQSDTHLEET
T1 sequence (Q9NZQ7 18-134): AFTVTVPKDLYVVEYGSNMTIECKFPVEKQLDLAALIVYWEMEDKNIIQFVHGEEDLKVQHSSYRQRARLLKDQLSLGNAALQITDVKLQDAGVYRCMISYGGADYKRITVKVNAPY

change of hPD-L1 1H NMR spectrum on adding compound [2]: broadening of the hPD-L1 proton signals
EC50 ([3]; Jurkat-ECs with CHO/TCRAct/PD-L1, 6 h, SI csv, read-out: Bioactivity (EC50 in the ICB assay)): 1.03 ± 0.15 µM
EC50 ([3]; read-out: EC50 in cell-based assays): ~1 µM
Compound: COc1cc(-c2cccc(-c3ccc4c(c3)OCCO4)c2Cl)ccc1CNC(CO)(CO)CO [8j, 2-(((3′-(Benzo-1,4-dioxan-6-yl)-2′-chloro-3-methoxy-[1,1′-biphenyl]-4-yl)methyl)amino)-2-(hydroxymethyl)propane-1,3-diol]
activation of Jurkat-ECs where PD-L1 is absent [1]: requires the presence of PD-L1
selectivity of PD-1/PD-L1-blocking activity versus cytotoxicity ([3]; EC50 (tox.) vs EC50 (bio.), Figure 3F): highest selectivity
